Laboratory results as given in US7811577B2 (priority 2004, dated 2010).
Entries after “also recorded” stand apart in the source; their conditions may differ. Where two headings read alike, the source gives them in different places. Numbered stars: 1 amine (or outer) side, 2 acyl side, 3 side chain; on linkers, the order of the positions; unused ones are H or OH. Bridge positions count the residues as written; N and C are the ends. Square brackets hold non-standard residues; d marks the D form. Ends that are not written are not given here. I, II: the chains in the order shown. * marks the point of attachment. Biotin = O=C1N[C@H]2[C@H](CS[C@H]2CCCCC(=O)*)N1; Ttds = O=C(CCC(=O)[*:2])NCCCOCCOCCOCCCN[*:1]; Acm = CC(=O)NC*

Assays:
[1] = tested on: HIV-1 HXB2; conditions: for anti-viral activity against HIV-1 HXB2, in words: single-cycle/single cell infectivity assay
[2] = tested on: D5 IgG binding to biotinylated 5-Helix; experiment: Biotinylated 5-Helix/D5 IgG interaction (competition) assay, AlphaScreen
From the text: The instrument records these emissions.
(§1) This test determines whether the covalently-stabilized, homotrimeric or heterotrimeric CC-chimeric N-peptides can preserve the structure of the internal, N-helix coiled-coil of gp41.

[3] = Thermal denaturation (CD) in 2M guanidinium chloride; conditions: for melting temperature / midpoint of thermal denaturation: in the presence of 2M guanidinium chloride
Protocol: The stability of SZN17 was compared with that of IZN17 using thermal denaturation analysis performed in the presence of 2M guanidine hydrochloride (GdnHCl).

[4] = tested on: HIV-1 89.6; assay type: cell-based
[5] = Circular dichroism spectroscopy and thermal denaturation without denaturant; assay type: physicochemical; conditions: for melting point (thermal denaturation): no denaturant
Protocol: The IZ-like scaffold in CCI10N17 (SEQ ID NO:20) comprises only the ten COOH-terminal residues of the “IZ” scaffold, with addition of the covalent trimerizing unit (CCGG (SEQ ID NO:28)) at the NH2-terminus of the peptide. The non-covalently-stabilized CCI10N17 coiled-coil (i.e., the coiled-coil formed under non-oxidizing conditions) was dissolved at neutral pH, and its secondary structure content was determined by circular dichroism spectroscopy (CD).
In order to understand the role of the covalent trimerizing unit (CCGG; SEQ ID NO:28), the CCI10N17 peptide was dissolved to permit air oxidation under the same conditions as previously shown for CCIZN17, to generate covalently-stabilized coiled-coil molecules, (CCI10N17)3. […] The trimer (CCI10N17)3 was analyzed by CD and denaturation studies for analysis of both its secondary structure content and stability. The helical content of this molecule was only 85% with a melting curve showing a low cooperatively profile and a low melting point of about 60° C.

[6] = tested on: HIV-1 BaL
[7] = tested on: D5 IgG binding to biotinylated-IZN17; experiment: Biotinylated-IZN17/D5 IgG interaction assay, AlphaScreen
From the text: The instrument records these emissions.
as §1

[8] = tested on: D5 IgG / biotinylated-IZN17; experiment: IC50 (nM)
From the text: Table printed on a drawing sheet, FIG. 6
Head of the field: IC50 (nM)
Wildtype IZN17 peptide was included as a positive control, previously shown to inhibit D5 binding in this assay.
First copying reader's note: The table stands beside a dose-response plot (Average Alpha Counts vs [Peptide]), which is not copied.

[9] = tested on: D5-IgG binding to biotinylated IQN17; experiment: Competition of D5-IgG binding to biotinylated IQN17, AlphaScreen
[10] = non-covalently-stabilized coiled-coil, neutral pH, 15 μM

For “(CCIZN11IZ)3: covalent disulfide trimer of CCIZN11IZ (CCGGIKKEIEAIKKEQEAIKKKIEAIEKLLQLTVWGIKQIKKEIEAI; also: disulfide-linked homotrimer)”, the IC50 ([1]; read-out: IC50 against HIV-1 HXB2, single-cycle infectivity assay, HXB2) was 0.3 nM and the “D5 IgG binding in bio-5-Helix/D5 IgG interaction assay, in words” value [2] was “binds D5 IgG”.

In the case of “(CCS10N17)3: covalent disulfide trimer of CCS10N17 (CCGGIEKKIEAIEKLLQLTVWGIKQLQARIL; also: disulfide-linked homotrimer)”, the “anti-viral activity against HIV-1 HXB2, in words” value [1] is reported as “much lower potencies”.

In the case of “(CCS17N17)3: covalent disulfide trimer of CCS17N17 (CCGGIEKKIEAIEKKIEAIEKLLQLTVWGIKQLQARIL; also: disulfide-linked homotrimer)”, the “melting temperature / midpoint of thermal denaturation” value (from here on “melting temperature / midpoint”) [3] is reported as “above 90 °C”.

For “Ac-IKKEIEAIKKEQEAIKKKIEAIEKLLQLTVWGIKQLQARIL-NH2 [IZN17, reference compound]”, the “anti-viral activity against HIV isolate 89.6, in words” value [4] was “completely resistant towards IZN17”, the “Anti-viral activity, IC50” value ([4]; HIV strain 89.6) was “No” and the “helical content by circular dichroism” value [5, 10] was “fully helical”. The IC50 ([1]; HXB2) was 1.7 nM, the IC50 ([6]; BaL) was 3.2 nM and the “Tm (2M GdnHCl), midpoint of thermal denaturation” value (from here on “Tm (2M GdnHCl), midpoint”) [3] was 61.5 °C. For the same molecule, the “melting temperature / midpoint” value [3] was 61.5 °C.

“Ac-LLQLTVWGIKQLQARILAIKKEIEAIKKEQEAIKKKIEAI-NH2 (C-terminus assumed) [N17IZ]” gave an IC50 ([1]; HXB2) of 800 nM.

“Biotin-GGIKKEIEAIKKEQEAIKKKIEAIEKEIEAQQHLLQLTVWGIKQLQARIL-NH2 [Biotin-IZN23]” showed an IC50 ([1]; HXB2) of 2.17 nM.

For “CCGGIEKKIEEIEKKIEEIEKKIEEIEKLLQLTVWGIKQLQARIL [CCEZN17]”, the “anti-viral activity against HIV-1 HXB2, in words” value [1] was “lack of anti-viral activity”, the “D5 IgG binding in bio-IZN17/D5 IgG interaction assay, in words” value [7] was “interact with D5 IgG” and the “D5 IgG binding in bio-5-Helix/D5 IgG interaction assay, in words” value [2] was “interact with D5 IgG”.

In the case of “CCGGIKKEIEAIKKEQEAIKKKIEAIEKLLQLTVWGIKALAAAIA [CCIZN17Ala4]”, the “anti-viral activity against HIV-1 HXB2, in words” value [1] is reported as “retain anti-viral activity”.

With “CCGGIKKKIEAIEKLLQLTVWGIKQLQARIL [CCI10N17]” the “helical content by circular dichroism” value [5, 10] was 61% and the “anti-viral activity against HIV-1 HXB2, in words” value [1] was “less potent anti-virals”.

In the case of “I: Ac-CCGGIKKKIEAIEKLLQLTVWGIKQLQARIL-NH2 / II: Ac-CCGGIKKKIEAIEKLLQLTVWGIKQLQARIL-NH2 / III: Ac-CCGGIKKKIEAIEKLLQLTVWGIKQLQARIL-NH2 (disulfide I:1-III:2, I:2-II:2, II:1-III:1; C-terminus assumed) [(CCI10N17)3]”, the “helical content by circular dichroism” value [5] is reported as 85%, the “melting point (thermal denaturation)” value [5] is reported as “about 60 °C” and the “melting point (thermal denaturation)” value ([5]; listed as (CC110N17)3) is reported as 60 °C. The “fold less potent (IC50) than (CCIZN17)3” value [1] was “approximately 150 fold”, the IC50 ([1]; HXB2) was 24 nM and the “fold reduction in anti-viral activity relative to IZN17” value ([1]; HXB2) was “approximately 10 fold”. For the same molecule, the “anti-viral activity against HIV-1 HXB2, in words” value [1] was “less potent in anti-viral activity assays”, the “D5 IgG binding in bio-IZN17/D5 IgG interaction assay, in words” value [7] was “somewhat less effective than 112N7; also recorded: clearly inhibits” and the “D5 IgG binding in bio-5-Helix/D5 IgG interaction assay, in words” value [2] was “competes for binding of D5 IgG to Biotin-5-Helix”.

For “IEKKIEAIEKKIEAIEKKIEAIEKLLQLTVWGIKQLQARIL [SZN17]”, the IC50 ([1]; read-out: IC50 in single-cell infectivity assay, against HIV BXB2 (so in the source), unit inferred) was 1.5 nM and the “melting temperature / midpoint” value [3] was greater than 90 °C.

In the case of “IEKKIEEIEKKIEEIEKKIEEIEKLLQLTVWGIKQLQARIL [EZN17, EZ scaffold fused to N17]”, the IC50 [8] is reported as 18.3 nM.

In the case of “IEKKIEEIEKKIEEIEKKIEEIEKLLQLTVWGIKQLQARIL [EZN17]”, the “helical content by circular dichroism” value [5] is reported as “fully helical”, the “D5 IgG binding in bio-IZN17/D5 IgG interaction assay, in words” value [7] is reported as “strongly binds to D5 IgG; also recorded: interact with D5 IgG; also recorded: affinity comparable to IZN17” and the “D5 IgG binding in bio-5-Helix/D5 IgG interaction assay, in words” value [2] is reported as “interact with D5 IgG”.

In the case of “IKKEIEAIKKEQEAIKKKIEAIEKLLQLTVWGIKQLQARIa (Ac-IKKEIEAIKKEQEAIKKKIEAIEKLLQLTVWGIKQLQARIA-NH2; not fully specified (residue 41)) [IZN17A17]”, the “Tm (2M GdnHCl), midpoint” value [3] is reported as 60.6 °C.

With “IKKEIEAIKKEQEAIKKKIEAIEKLLQLTVWGIKQLQAaIL (Ac-IKKEIEAIKKEQEAIKKKIEAIEKLLQLTVWGIKQLQAAIL-NH2; not fully specified (residue 38); printed as IKKEIEAIKKEQEAIKKKIEAIEKLLQLTVWGIKQLQAaIL) [IZN17A15]” the “Tm (2M GdnHCl), midpoint” value [3] was 77.2 °C.

For “IKKEIEAIKKEQEAIKKKIEAIEKLLQLTVWGIKaLQARIL (Ac-IKKEIEAIKKEQEAIKKKIEAIEKLLQLTVWGIKALQARIL-NH2; not fully specified (residue 35); printed as IKKEIEAIKKEQEAIKKKIEAIEKLLQLTVWGIKaLQARIL) [IZN17A11]”, the “Tm (2M GdnHCl), midpoint” value [3] was 66.0 °C.

With “IKKEIEAIKKEQEAIKKKIEAIEKLLQLTVWGIaQLQARIL (Ac-IKKEIEAIKKEQEAIKKKIEAIEKLLQLTVWGIAQLQARIL-NH2) [IZN17A10]” the “Tm (2M GdnHCl), midpoint” value [3] was 68.1 °C and the “competition of D5-IgG binding to biotinylated IQN17, in words” value (“competition of D5-IgG binding” for short) [9] was “completely abolish binding of D5”.

In the case of “IKKEIEAIKKEQEAIKKKIEAIEKLLQLTVaGIKQLQARIL (Ac-IKKEIEAIKKEQEAIKKKIEAIEKLLQLTVAGIKQLQARIL-NH2) [IZN17A7]”, the “Tm (2M GdnHCl), midpoint” value [3] is reported as 61.4 °C and the “competition of D5-IgG binding” value [9] is reported as “completely abolish binding of D5”.

In the case of “IKKEIEAIKKEQEAIKKKIEAIEKLLQLTaWGIKQLQARIL (Ac-IKKEIEAIKKEQEAIKKKIEAIEKLLQLTAWGIKQLQARIL-NH2) [IZN17A6]”, the “Tm (2M GdnHCl), midpoint” value [3] is reported as 56.4 °C.

With “IKKEIEAIKKEQEAIKKKIEAIEKLLQaTVWGIKQLQARIL (Ac-IKKEIEAIKKEQEAIKKKIEAIEKLLQATVWGIKQLQARIL-NH2) [IZN17A4]” the “Tm (2M GdnHCl), midpoint” value [3] was 58.2 °C and the “competition of D5-IgG binding” value [9] was “completely abolish binding of D5”.

In the case of “IKKEIEAIKKEQEAIKKKIEAIEKLLaLTVWGIKQLQARIL (Ac-IKKEIEAIKKEQEAIKKKIEAIEKLLALTVWGIKQLQARIL-NH2) [IZN17A3]”, the “Tm (2M GdnHCl), midpoint” value [3] is reported as 64.7 °C.

In the case of “IKKEIEAIKKEQEAIKKKIEAIEKaLQLTVWGIKQLQARIL (Ac-IKKEIEAIKKEQEAIKKKIEAIEKALQLTVWGIKQLQARIL-NH2) [IZN17A1]”, the “Tm (2M GdnHCl), midpoint” value [3] is reported as 51.7 °C.

For “IKKEIEAIKKEQEATKKKIEAIEKLLQLTVWGIKQLaARIL [IZN17A13]”, the “Tm (2M GdnHCl), midpoint” value [3] was 71.5 °C.

In the case of “IKKKIEAIEKLLQLTVWGIKQLQARILGGCC [I10N17CC]”, the “anti-viral activity against HIV-1 HXB2, in words” value [1] is reported as “less potent anti-virals”.

With “ac-C(Acm)(thioE10N17)3: one ac-C(Acm)Ttds-CCE10N17 ligated via two thioether bonds to two acetyl-GGGE10N17 chains (peptide 1 {CH2CO}-C(Acm)[Ttds]CCIEEKIEEIEELLQLTVWGIKQLQARIL; peptide 2 Ac-GGGIEEKIEEIEELLQLTVWGIKQLQARIL; thioether I:N-I:3, I:N-I:4; numbers in words are those of the source; also: chain 2 present twice, each copy ligated via thioether to one of the two Cys of chain 1)” the “anti-viral activity against HIV-1 HXB2, in words” value [1] was “much lower potencies” and the “melting temperature / midpoint” value [3] was “above 90 °C”.

Work on enfuvirtide yielded an IC50 ([4]; HIV strain 89.6, read-out: Anti-viral activity, IC50) of 29 nM, an IC50 ([1]; read-out: Anti-viral activity, IC50, HIV strain HXB2) of 5.3 nM and an IC50 ([6]; read-out: Anti-viral activity, IC50, HIV strain BaL) of 2.4 nM.

B1: ac-C(Acm)(thioIZN17)3: one ac-C(Acm)Ttds-CCIZN17 chain ligated via two thioether bonds to two acetyl-GGGIZN17 chains (peptide)
peptide 1: CCCGGIKKEIEAIKKEQEAIKKKIEAIEKLLQLTVWGIKQLQARIL
peptide 2: GGGIKKEIEAIKKEQEAIKKKIEAIEKLLQLTVWGIKQLQARIL
With B1 the “anti-viral activity against HIV-1 HXB2, in words” value [1] was “comparable antiviral activity to (CCIZN17)3”.
